According to article doi:10.1101/2021.04.08.439011v1 (biorxiv, 2021):
Like-named read-outs stand apart in the source and are kept apart here.

Key:
ABL1(M351T) = ABL1(M351T) (Homo sapiens, UniProt P00519, M351T); details: phosphorylated; 1 µM; binder
ABL1(Y253F) = ABL1(Y253F) (Homo sapiens, UniProt P00519, Y253F); details: phosphorylated; 1 µM; binder
ALK(L1196M) = ALK(L1196M) (Homo sapiens, UniProt Q9UM73, L1196M); details: 1 µM; binder
CDK19 = CDK19 (Homo sapiens, UniProt Q9BWU1); details: 1 µM; binder
CDK2 = CDK2 (Homo sapiens, UniProt P24941); details: 1 µM; binder
CDK4-cyclinD3 = CDK4-cyclinD3 (Homo sapiens, UniProt P11802); details: 1 µM; binder
CSNK1E = CSNK1E (Homo sapiens, UniProt P49674); details: 1 µM; binder
DAPK2 = DAPK2 (Homo sapiens, UniProt Q9UIK4); details: 1 µM; binder
DCAMKL3 = DCAMKL3 (Homo sapiens, UniProt Q9C098); details: 1 µM; binder
DYRK1A = DYRK1A (Homo sapiens, UniProt Q13627); details: 1 µM; binder
DYRK2 = DYRK2 (Homo sapiens, UniProt Q92630); details: 1 µM; binder
EGFR(L858R,T790M) = EGFR(L858R,T790M) (Homo sapiens, UniProt P00533, L858R/T790M); details: 1 µM; binder
EPHB3 = EPHB3 (Homo sapiens, UniProt P54753); details: 1 µM; binder
ERBB2 = ERBB2 (Homo sapiens, UniProt P04626); details: 1 µM; binder
ERK4 = ERK4 (Homo sapiens, UniProt P31152); details: 1 µM; binder
HPK1 = HPK1 (Homo sapiens, UniProt Q92918); details: 1 µM; binder
IKK-alpha = IKK-alpha (Homo sapiens, UniProt O15111); details: 1 µM; binder
MAP3K2 = MAP3K2 (Homo sapiens, UniProt Q9Y2U5); details: 1 µM; binder
MAP3K3 = MAP3K3 (Homo sapiens, UniProt Q99759); details: 1 µM; binder
MAP4K5 = MAP4K5 (Homo sapiens, UniProt Q9Y4K4); details: 1 µM; binder
PAK4 = PAK4 (Homo sapiens, UniProt O96013); details: 1 µM; binder
PCTK1 = PCTK1 (Homo sapiens, UniProt Q00536); details: 1 µM; binder
PIK3CA(E542K) = PIK3CA(E542K) (Homo sapiens, UniProt P42336, E542K); details: 1 µM; binder
PIK3CG = PIK3CG (Homo sapiens, UniProt P48736); details: 1 µM; binder
PIM2 = PIM2 (Homo sapiens, UniProt Q9P1W9); details: 1 µM; binder
PIP5K1A = PIP5K1A (Homo sapiens, UniProt Q99755); details: 1 µM; binder
PRKR = PRKR (Homo sapiens, UniProt P19525); details: 1 µM; binder
RPS6KA3 = RPS6KA3 (Homo sapiens, UniProt P51812); details: binder
p38-alpha = p38-alpha (Homo sapiens, UniProt Q16539); details: 1 µM; binder

RPS6KA3, sequence (P51812 whole entry): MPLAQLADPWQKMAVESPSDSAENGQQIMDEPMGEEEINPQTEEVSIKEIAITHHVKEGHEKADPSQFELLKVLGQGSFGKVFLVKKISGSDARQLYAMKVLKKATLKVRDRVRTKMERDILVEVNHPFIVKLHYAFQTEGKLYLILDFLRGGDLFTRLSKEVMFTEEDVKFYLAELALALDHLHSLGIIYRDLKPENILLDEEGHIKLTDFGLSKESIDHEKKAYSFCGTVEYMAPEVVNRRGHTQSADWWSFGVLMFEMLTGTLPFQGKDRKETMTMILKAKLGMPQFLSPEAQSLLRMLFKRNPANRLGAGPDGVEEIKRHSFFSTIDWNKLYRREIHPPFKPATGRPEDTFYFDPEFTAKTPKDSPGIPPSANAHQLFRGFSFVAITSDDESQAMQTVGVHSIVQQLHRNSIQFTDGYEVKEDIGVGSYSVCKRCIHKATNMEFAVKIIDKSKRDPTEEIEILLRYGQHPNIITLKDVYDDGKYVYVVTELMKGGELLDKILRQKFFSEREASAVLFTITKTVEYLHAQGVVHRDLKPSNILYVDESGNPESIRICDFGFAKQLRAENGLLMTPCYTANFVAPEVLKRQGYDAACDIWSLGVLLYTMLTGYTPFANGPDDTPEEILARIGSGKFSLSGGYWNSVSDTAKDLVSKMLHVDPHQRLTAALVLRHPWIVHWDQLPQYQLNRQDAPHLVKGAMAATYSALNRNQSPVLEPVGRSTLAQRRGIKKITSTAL
PIK3CG, sequence (P48736 whole entry): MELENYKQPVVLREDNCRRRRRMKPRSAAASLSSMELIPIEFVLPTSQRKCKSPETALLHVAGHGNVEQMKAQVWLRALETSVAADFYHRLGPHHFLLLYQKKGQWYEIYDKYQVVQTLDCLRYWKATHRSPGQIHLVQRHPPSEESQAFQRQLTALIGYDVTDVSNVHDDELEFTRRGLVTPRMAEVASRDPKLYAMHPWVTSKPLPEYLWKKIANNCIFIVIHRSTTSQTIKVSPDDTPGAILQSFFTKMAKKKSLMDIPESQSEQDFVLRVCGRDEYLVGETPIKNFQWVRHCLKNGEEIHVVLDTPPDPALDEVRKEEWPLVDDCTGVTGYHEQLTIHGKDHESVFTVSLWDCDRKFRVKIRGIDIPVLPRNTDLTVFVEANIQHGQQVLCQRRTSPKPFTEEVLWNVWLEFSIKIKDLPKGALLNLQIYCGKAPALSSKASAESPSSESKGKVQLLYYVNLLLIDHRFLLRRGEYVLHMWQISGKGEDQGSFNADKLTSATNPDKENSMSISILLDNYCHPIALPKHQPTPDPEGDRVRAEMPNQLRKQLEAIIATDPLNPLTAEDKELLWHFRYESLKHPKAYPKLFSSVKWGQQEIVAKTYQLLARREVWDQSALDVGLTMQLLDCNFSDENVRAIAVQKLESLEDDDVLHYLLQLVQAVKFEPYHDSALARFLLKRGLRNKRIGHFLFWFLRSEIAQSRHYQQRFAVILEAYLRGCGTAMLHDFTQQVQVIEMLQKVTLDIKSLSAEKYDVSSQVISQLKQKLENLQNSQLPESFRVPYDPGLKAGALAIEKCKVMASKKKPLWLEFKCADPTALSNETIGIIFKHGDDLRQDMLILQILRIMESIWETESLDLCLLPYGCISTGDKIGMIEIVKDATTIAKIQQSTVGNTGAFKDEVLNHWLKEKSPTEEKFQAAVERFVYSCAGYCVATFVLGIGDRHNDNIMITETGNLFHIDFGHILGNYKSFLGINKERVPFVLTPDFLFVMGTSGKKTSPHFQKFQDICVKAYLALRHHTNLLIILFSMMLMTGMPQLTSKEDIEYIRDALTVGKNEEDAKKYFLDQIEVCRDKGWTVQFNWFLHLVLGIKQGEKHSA
PIM2, sequence (Q9P1W9 whole entry): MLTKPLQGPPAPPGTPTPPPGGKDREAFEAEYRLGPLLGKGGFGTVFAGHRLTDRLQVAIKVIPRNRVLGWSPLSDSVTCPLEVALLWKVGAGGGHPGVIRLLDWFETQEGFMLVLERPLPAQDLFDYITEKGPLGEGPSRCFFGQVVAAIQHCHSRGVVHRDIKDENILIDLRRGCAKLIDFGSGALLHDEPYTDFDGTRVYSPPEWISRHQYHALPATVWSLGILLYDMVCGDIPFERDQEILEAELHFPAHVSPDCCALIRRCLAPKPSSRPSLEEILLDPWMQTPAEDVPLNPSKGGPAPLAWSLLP
ERK4, sequence (P31152 whole entry): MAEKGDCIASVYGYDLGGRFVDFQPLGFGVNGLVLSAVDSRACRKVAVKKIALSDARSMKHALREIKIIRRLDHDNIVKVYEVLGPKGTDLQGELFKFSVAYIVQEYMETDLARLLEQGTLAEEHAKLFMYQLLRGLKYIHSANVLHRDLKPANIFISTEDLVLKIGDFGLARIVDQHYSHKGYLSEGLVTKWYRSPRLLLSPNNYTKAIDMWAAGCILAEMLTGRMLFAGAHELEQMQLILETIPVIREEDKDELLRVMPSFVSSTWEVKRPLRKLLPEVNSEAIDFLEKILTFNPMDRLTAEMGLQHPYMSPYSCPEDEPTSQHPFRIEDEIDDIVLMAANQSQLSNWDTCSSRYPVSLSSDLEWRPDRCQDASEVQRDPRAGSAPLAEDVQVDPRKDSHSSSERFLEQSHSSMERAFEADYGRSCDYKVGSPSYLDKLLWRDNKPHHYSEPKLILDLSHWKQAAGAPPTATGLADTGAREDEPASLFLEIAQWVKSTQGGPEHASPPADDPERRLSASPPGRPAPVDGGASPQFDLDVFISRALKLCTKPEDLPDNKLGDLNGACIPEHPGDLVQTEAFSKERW
MAP3K2, sequence (Q9Y2U5 whole entry): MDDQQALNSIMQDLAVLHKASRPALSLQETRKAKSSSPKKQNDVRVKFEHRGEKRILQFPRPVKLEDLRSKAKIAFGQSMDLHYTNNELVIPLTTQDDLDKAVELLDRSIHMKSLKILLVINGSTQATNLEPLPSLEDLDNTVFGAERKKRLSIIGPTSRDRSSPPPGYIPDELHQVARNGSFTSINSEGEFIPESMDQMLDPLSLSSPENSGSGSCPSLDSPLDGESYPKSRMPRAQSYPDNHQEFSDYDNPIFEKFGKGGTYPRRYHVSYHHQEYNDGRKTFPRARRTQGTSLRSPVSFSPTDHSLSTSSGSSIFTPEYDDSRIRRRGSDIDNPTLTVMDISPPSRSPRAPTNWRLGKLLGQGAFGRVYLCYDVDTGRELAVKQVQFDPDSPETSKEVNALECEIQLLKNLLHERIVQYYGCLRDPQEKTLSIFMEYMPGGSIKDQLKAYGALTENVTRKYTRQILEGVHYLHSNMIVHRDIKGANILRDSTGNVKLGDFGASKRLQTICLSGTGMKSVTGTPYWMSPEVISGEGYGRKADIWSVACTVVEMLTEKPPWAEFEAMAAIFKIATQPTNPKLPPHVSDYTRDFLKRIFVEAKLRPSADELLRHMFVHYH
PRKR, sequence (P19525 whole entry): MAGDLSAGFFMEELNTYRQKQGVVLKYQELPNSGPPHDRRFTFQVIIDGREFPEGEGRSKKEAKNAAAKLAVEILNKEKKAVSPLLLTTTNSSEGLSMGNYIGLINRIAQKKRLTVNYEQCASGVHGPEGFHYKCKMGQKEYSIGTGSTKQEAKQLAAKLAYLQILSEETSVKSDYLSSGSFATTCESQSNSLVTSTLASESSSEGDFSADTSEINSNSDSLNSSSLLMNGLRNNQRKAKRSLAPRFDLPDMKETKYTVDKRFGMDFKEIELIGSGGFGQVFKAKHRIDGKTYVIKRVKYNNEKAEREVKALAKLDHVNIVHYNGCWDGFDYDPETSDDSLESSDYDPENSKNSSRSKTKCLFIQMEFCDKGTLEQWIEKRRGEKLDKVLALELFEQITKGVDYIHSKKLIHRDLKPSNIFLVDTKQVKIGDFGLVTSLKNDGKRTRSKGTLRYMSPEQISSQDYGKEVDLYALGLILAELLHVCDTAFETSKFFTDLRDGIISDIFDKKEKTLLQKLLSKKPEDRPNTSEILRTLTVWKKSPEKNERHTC
IKK-alpha, sequence (O15111 whole entry): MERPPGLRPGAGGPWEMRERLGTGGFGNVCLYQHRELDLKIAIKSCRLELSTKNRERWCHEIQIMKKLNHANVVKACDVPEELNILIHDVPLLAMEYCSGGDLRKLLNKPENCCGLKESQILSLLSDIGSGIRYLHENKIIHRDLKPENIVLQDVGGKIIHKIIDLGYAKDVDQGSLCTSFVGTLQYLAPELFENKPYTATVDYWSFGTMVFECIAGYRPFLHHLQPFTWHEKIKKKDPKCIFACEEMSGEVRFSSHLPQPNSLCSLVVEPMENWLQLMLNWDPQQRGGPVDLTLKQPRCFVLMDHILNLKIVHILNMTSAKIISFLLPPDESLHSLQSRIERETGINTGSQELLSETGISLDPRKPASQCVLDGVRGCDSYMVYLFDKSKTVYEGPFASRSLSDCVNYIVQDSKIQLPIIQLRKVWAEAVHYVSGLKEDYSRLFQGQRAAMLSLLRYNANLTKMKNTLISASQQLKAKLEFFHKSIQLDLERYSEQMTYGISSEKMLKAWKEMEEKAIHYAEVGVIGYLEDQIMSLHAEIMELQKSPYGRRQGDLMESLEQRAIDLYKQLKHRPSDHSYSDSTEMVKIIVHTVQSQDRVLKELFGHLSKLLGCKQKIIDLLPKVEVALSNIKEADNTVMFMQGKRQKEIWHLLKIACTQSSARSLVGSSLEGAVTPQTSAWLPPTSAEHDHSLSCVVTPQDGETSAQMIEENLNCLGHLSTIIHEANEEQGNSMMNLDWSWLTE
DAPK2, sequence (Q9UIK4 whole entry): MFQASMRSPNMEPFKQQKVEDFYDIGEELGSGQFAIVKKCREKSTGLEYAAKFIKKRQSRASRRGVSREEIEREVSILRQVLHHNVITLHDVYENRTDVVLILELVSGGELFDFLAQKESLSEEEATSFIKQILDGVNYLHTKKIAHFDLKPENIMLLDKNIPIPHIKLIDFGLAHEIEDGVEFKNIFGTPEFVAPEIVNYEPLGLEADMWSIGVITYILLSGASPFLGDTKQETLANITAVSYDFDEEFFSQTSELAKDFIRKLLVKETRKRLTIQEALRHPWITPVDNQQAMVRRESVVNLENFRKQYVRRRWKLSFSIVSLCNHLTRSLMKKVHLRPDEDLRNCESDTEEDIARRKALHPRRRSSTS

Q: For `CNc1ncc2cc(-c3ccc(-c4cccc(C)n4)cc3Cl)c(=O)n(C[C@H]3OC[C@H](N)CO3)c2n1` [compound 6, G-5555], which “Percent Control” value (ABL1(M351T)) is on record?
A: Its value is 100%.

Q: What about the “Percent Control” value (ABL1(Y253F)) of the same compound?
A: Its value is 100%.

Q: What about the “Percent Control” value (ALK(L1196M)) of the same compound?
A: Its value is 100%.

Q: And the “Percent Control” value (CDK19)?
A: Its value is 100%.

Q: What about the “Percent Control” value (CDK2) of the same compound?
A: The value was 100%.

Q: And the “Percent Control” value (CDK4-cyclinD3)?
A: The value was 100%.

Q: And the “Percent Control” value (CSNK1E)?
A: The value was 52%.

Q: What about the “Percent Control” value (DAPK2) of the same compound?
A: Its value is 100%.

Q: And the “Percent Control” value (DCAMKL3)?
A: Its value is 0.5%.

Q: And the “Percent Control” value (DYRK1A)?
A: The value was 100%.

Q: What about the “Percent Control” value (DYRK2) of the same compound?
A: The value was 100%.

Q: And the “Percent Control” value (EGFR(L858R,T790M))?
A: Its value is 100%.

Q: And the “Percent Control” value (EPHB3)?
A: The value was 100%.

Q: And the “Percent Control” value (ERBB2)?
A: The value was 100%.

Q: What about the “Percent Control” value (ERK4) of the same compound?
A: The value was 100%.

Q: What about the “Percent Control” value (HPK1) of the same compound?
A: The value was 26%.

Q: And the “Percent Control” value (IKK-alpha)?
A: Its value is 98%.

Q: What about the “Percent Control” value (MAP3K2) of the same compound?
A: Its value is 67%.

Q: And the “Percent Control” value (MAP3K3)?
A: Its value is 23%.

Q: And the “Percent Control” value (MAP4K5)?
A: The value was 5.3%.

Q: What about the “Percent Control” value (PAK4) of the same compound?
A: The value was 77%.

Q: What about the “Percent Control” value (PCTK1) of the same compound?
A: Its value is 100%.

Q: And the “Percent Control” value (PIK3CA(E542K))?
A: Its value is 100%.

Q: What about the “Percent Control” value (PIK3CG) of the same compound?
A: The value was 93%.

Q: And the “Percent Control” value (PIM2)?
A: The value was 100%.

Q: What about the “Percent Control” value (PIP5K1A) of the same compound?
A: Its value is 67%.

Q: And the “Percent Control” value (PRKR)?
A: Its value is 94%.

Q: What about the “Percent Control” value (RPS6KA3; Kin.Dom.1 N-terminal) of the same compound?
A: The value was 65%.

Q: What about the “Percent Control” value (RPS6KA3; Kin.Dom.2 C-terminal, 1 µM) of the same compound?
A: Its value is 63%.

Q: What about the “Percent Control” value (p38-alpha) of the same compound?
A: Its value is 100%.
